From patent US11986542B2, “Composition for enhancing hair fiber properties” (The Procter & Gamble Company, priority 2016, dated 2024)

Legend:
[1] = Log P (octanol-water partition coefficient)
Excerpt: “Log P” means octanol-water partition coefficient and is a physical property that describes a chemical's lipophilic and hydrophophilic characteristics. Log P is the logarithm of the ratio of a chemical's concentration in the octanol phase to its concentration in the aqueous phase of a two-phase system at equilibrium. The partition coefficient is a ratio of concentrations of un-ionized compound between the two solutions. Log P=Log 10 (partition coefficient). Partition coefficient=[organic]/[aqueous], where [organic] is the concentration of the compound of interest in the organic solvent (e.g., octanol), and [aqueous] is the concentration of the compound of interest in the water phase.

[2] = Combing force for dry hair, aqueous/ethanol leave-on treatment; details: Table 2/FIG. 2; physically damaged virgin hair; aqueous/ethanol leave-on formulation, 2.5% total conditioning agent
Excerpt: (§1) This double combing apparatus is attached to an Instron Model 5564. The switch is combed 5 times with a fine-tooth comb and hanged onto the Instron load cell. Then, the hair switch is placed in the double comb apparatus. The Instron pulls the hair vertically at a rate of 10 mm/min until the hair switch clears the final comb. The peak force as the switch passes through the top comb is reported.

[3] = Combing force for dry hair, aqueous/ethanol treatment; details: Table 1/FIG. 1; moderately oxidatively-damaged hair; aqueous/ethanol formulation, 2.5% total conditioning agent; peak force
Excerpt: A moderately oxidatively-damaged hair switch or physically damaged virgin hair switch (with weight of 4 gram and length of 8 inches) is placed in an apparatus containing two combs separated by a vertical distance of 6 inches. This double combing apparatus is attached to an Instron Model 5564. The switch is combed 5 times with a fine-tooth comb and hanged onto the Instron load cell. Then, the hair switch is placed in the double comb apparatus. The Instron pulls the hair vertically at a rate of 10 mm/min until the hair switch clears the final comb. The peak force as the switch passes through the top comb is reported. […] EtOH/H2O Leave-on Treatments Single material mixtures: 500 mg of a lipid or a lipid enhancing agent is weighed into a 20 mL vial. 19.5 g of 50/50(v/v) ethanol water mixture is then added to the vial and capped. The mixture is then agitated for 30 seconds. Shampoo Washing Protocol: An amount of 0.10 g of clarifying shampoo per gram of hair is spread via a syringe onto separate hair switch. Each application consists of adding shampoo to the hair, milking for 30 seconds followed by rinsing for 30 seconds. Shampoo is then reapplied (0.[…]), milked for 30 seconds and rinsed for 30 seconds. Leave-on Treatments with Aqueous/Ethanolic Lipid Compositions a. […] The combing force is measured for each switch and an average for the three switches is calculated. […]

[4] = Combing force after leave-on hair treatment using neat material; details: 0.4 ml neat material on 4 g switch, average of three switches; for Combing force, 1 Wash (gf): after 1 clarifying shampoo wash; for Combing force, 5 Washes (gf): after 5 clarifying shampoo washes
Excerpt: as §1
The treatment is repeated to two additional switches. The treated hair switches are allowed to rest for 24 hours under controlled temperature and relative humidity conditions (27° C. and 50% RH). After this time period, each hair switch is washed with a clarifying shampoo (see shampoo washing protocol below) and allowed to air dry for 24 hours under controlled temperature and relative humidity conditions (27° C. and 50% RH). The combing force is measured for each switch and an average for the three switches is calculated. […] Linoleic acid • b.

Molecule	logP ([1]; octanol/water)	Combing Force (gf) [2]	further results
CCCCCCCC/C=C\CCCCCCCCCCCC(=O)O [Erucic acid, reference compound]	9		
CCCCCCCC/C=C\CCCCCCCC(=O)OCC(O)CO (stereo not drawn) [Glyceryl alpha-monooleate]	6.3	268 gf	Combing Force (gf) [3]: 157 gf
CCCCCCCC/C=C\CCCCCCCC(=O)O [Oleic acid]	7		Combing force, 1 Wash (gf) [4]: 24 gf; Combing force, 5 Washes (gf) [4]: 58 gf; Combing Force (gf) [3]: 161 gf
CCCCCCCCCCCCCCCCCC(=O)O [Stearic Acid, reference compound]	8		
Propyleneglycol monooleate [reference compound]			logP ([1]; Table 3): 7.5

More lines, main results first:

logP ([1]; octanol/water)	Molecule	Combing Force (gf) [2]	further results
6.9	CCCCCCCC/C=C\CCCCCCCC(=O)OCCO [Ethyleneglycol monooleate]		
6.4	CCCCC/C=C\C/C=C\CCCCCCCC(=O)O [Linoleic Acid, reference compound]		Combing force, 1 Wash (gf) [4]: 27 gf; Combing force, 5 Washes (gf) [4]: 96 gf
8	CCCCCCCC/C=C\CCCCCCCC(=O)OC [Methyl Oleate, reference compound]		
7	CCCCCCCC/C=C\CCCCCCCCO [Oleyl Alcohol]	246 gf	
6.6	CCCCCC/C=C\CCCCCCCC(=O)O [Palmitoleic Acid]	76 gf	
